The values that follow come from patent US20230126375A1, “ENGINEERED BACTERIA AND METHODS OF PRODUCING SUSTAINABLE BIOMOLECULES” (PRESIDENT AND FELLOWS OF HARVARD COLLEGE, priority 2020, published 2023).

“Also recorded” adds a separate entry of the source.

This assay relates to β-oxidation. Briefly: PHA co-polymer composition of lithotrophic C. necator strains with acrylic acid (GCMS of 3-hydroxy acid methyl esters). It counts as cell-based. The method, then:
PHA extraction and analysis: After 48 hr of growth in the second media exchange, 100 ml lithotrophic PHA-producing C. necator cultures were induced with 0.3% arabinose where indicated along with 240 ug/mL acrylic acid where indicated and grown for 5 days at 30° C. Cultures were harvest, pelleted, and lyophilized overnight. Freeze dried pellets were weighed for dry cell weight. PHA was purified with 0.2 ml/mg DCW of 13% NaClO^− for 4 hr at 30° C., washed twice with dH2O, washed once with acetone, then dried at 25° C. overnight. 1:1 methanol and HCl in dioxane to a final volume of 3 ml (1% pentadecanoate as internal standard), the tubes were sealed with crimp top and incubated in oil bath at 90° C. for 20 hr. Tubes were placed on ice, once cooled, 2 ml of chloroform was added and vigorously vortexed, 3 ml of dH2O was added followed by extensive vortexing, the organic phase was separated by centrifugation (10 min, 4,000×g), organic phase removed and stored at −20° C. until GCMS analysis.
GCMS analysis: PHA samples were analyzed by GC-MS 5975/7890 (Agilent Technologies™) on a DB-35 ms column. Samples were heated on a gradient from 40 to 250° C. at 5° C./min. The co-polymer composition was determined with the mass spectra of the 3-hydroxy alkanoic acid methyl esters at m/z=103 and NIST Mass Spectral Library™.

For `C=CC(=O)O` [acrylic acid], the “effect on PHA composition” value (PAS826 (wildtype phaC) and PAS827 (ΔphaC), 240 μg/mL acrylic acid with induction) was “no effect; also recorded: not strongly affected”. For the setting “PAS828, 240 μg/mL acrylic acid”, the “proportion of 3HO and 3HD” value is given as “decreased to undetectable levels”. Further, where the note is “PAS828 / PAS829 (UcFatB2, phaC1Pa), 240 μg/mL acrylic acid”, the “contribution to PHA composition” value is reported as “did not contribute significantly”. The “copolymer composition compared to no-acrylic acid condition” value (PAS829, 240 μg/mL acrylic acid) is recorded as “slightly enriched for longer-chain fatty acids”. Moreover, the “mcl-3HA proportion of PHA” value reads like this: (PAS830 (native phaC, chim4, phaC1Ps), with acrylic acid, mean) 72.6%; (PAS832 (native phaC, UcFatB2, phaC2Pa), with acrylic acid, n=3) 59.4%. The “3HO proportion of PHA” value is reported as 54.6% (PAS830, with acrylic acid, mean) and 61.4% (PAS831, with acrylic acid, n=2). Where the note is “PAS831, after the addition of acrylic acid”, the “enrichment of mcl-3HAs” value was “minor enrichment”. Moreover, for the setting “PAS831, with acrylic acid, n=2”, the “3HD proportion of PHA” value was found to be 7.1%. Besides, the “3HDD proportion of PHA” value runs as follows: (PAS831, with acrylic acid, n=2) 2.6%; (PAS832, with acrylic acid, n=3) 36.3%; (PAS833 (ΔphaC, UcFatB2, phaC2Pa), with acrylic acid) 60.3%. In addition, for the setting “PAS831, with acrylic acid, n=2”, the “3HTD proportion of PHA” value was found to be 1.2%.
